The results in this text go back to ChEMBL document CHEMBL1132070, “Piperidinyl-3-phosphinic acids as novel uptake inhibitors of the neurotransmitter gamma-aminobutyric acid (GABA)” (Bioorg Med Chem Lett, 1999).

The species named for this test is Rattus norvegicus. Nature of the test: Inhibition of [3H]GABA (gamma amino butyric acid) uptake in vitro in rat brain synaptosomes. Format: functional.

Some results are limits rather than exact numbers.

As for `CP(=O)(O)C1CCCNC1` (stereo not given), the IC50 (in general, the concentration needed to halve the response being measured) is > 1000 µM.

Turning to `O=[PH](O)C1CCCN(CCC=C(c2ccccc2)c2ccccc2)C1` (stereo not given), the IC50 worked out at 53 µM.

`O=C(O)C1CCCN(CCC=C(c2ccccc2)c2ccccc2)C1` (stereo not given): the IC50 stood at 0.1 µM.

On to `O=C(O)C1CCCNC1` (stereo not given) [NIPECOTIC ACID], for which the IC50 came to 4 µM.

As to `O=[PH](O)C1CCCNC1` (stereo not given), the midpoint of inhibition, the IC50, lay at 24 µM.
